Measurements taken from patent US20250264459A1, “IN VITRO ASSAY TO PREDICT CARDIOTOXICITY” (Stemina Biomarker Discovery, Inc., priority 2018, published 2025).
Where two headings read alike, the source gives them in different places. Where a SMILES comes first, the peptide text is derived from it.

How the values were obtained:
[1] = tested on: human iPSC-CM (iCell Cardiomyocytes); assay: Dose-response cell viability (CellTiter-Fluor) in iPSC-derived cardiomyocytes, maximum acceptable viability exposure; format: cell-based
Experimental: Metabolomic data was acquired to identify non-cytotoxic exposure levels and identify biomarkers of cardiotoxicity from a dose-response experiment using spent medium of iPSC-CM treated with 53 of the compounds in the training set. Briefly, human iPSC-CM (iCell® Cardiomyocytes, cat #R1007, Cellular Dynamics International) were exposed to eight concentrations of each training set compound. Spent media was collected for LC-MS analysis and cell viability was assessed with the CellTiter-Fluor Cell Viability Assay (Promega). Spent media samples were prepared and analyzed using the methods developed in Specific Aim 1. The spent media samples from iPSC-CM treated with 10 representative cardiotoxic and non-cardiotoxic compounds were analyzed with all four LC-MS methods to rank biological significant secretome features by predictive capacity. […]
The goal of the concentration-response phase of biomarker identification was to identify non-cytotoxic exposure levels that change iPSC-CM metabolism. The method included modeling feature response, calculating maximum acceptable viability (MAVE), determining response at Cmax, and MAVE, reviewing the top 4 responding features, and selecting the highest tested exposure with 90% viability.

[2] = cited from earlier work
[3] = tested on: human iPSC-CM (iCell Cardiomyocytes2); assay: Spent-media metabolomics (LC-MS) cardiotoxicity prediction models, blinded test set; conditions: functional vs general/structural cardiotoxicants, at the Exposure (μM) listed per compound in Table 3
Experimental: The reproducibility of the putative biomarkers of cardiotoxicity identified during the dose-response study was evaluated using two replicates of the optimized single exposure levels identified through the dose-response analyses. […] Predictive models and feature rankings were performed using a combined set HILIC and CS features as well as each method alone.

[4] = highest exposure tested with ≥90% viability, iPSC-CM, eight concentrations

Compound | MAVE (Maximum Acceptable Viability Exposure) ([1]; human) [µM] | Cmax Total ([2]; therapeutic total Cmax) [nM] | Functional Model Prediction [3] | MAVE (Maximum Acceptable Viability Exposure) [1, 4] [µM] | Cmax Total ([2]; in vivo) [nM]
COC(=O)[C@H](Cc1ccccc1)NC(=O)[C@@H](N)CC(=O)O [Aspartame] (H-Asp-Phe-OMe) | 100 | 1000 |  |  | 
COC(=O)c1ccc(O)cc1 [Methylparaben] | 100 | 230 |  |  | 
CCCN1C[C@H](CSC)C[C@@H]2c3cccc4[nH]cc(c34)C[C@H]21 [Pergolide] | 30 | 3 |  |  | 
CNCCC=C1c2ccccc2CCc2ccccc21 [Nortriptyline] | 1 | 570 |  |  | 
O=C(O)COCCN1CCN(C(c2ccccc2)c2ccc(Cl)cc2)CC1 (centres unmarked) [Cetirizine] |  |  | − |  | 
CC(=O)O[C@H]1C(=O)[C@@]2(C)[C@H]([C@H](OC(=O)c3ccccc3)[C@]3(O)C[C@H](OC(=O)[C@H](O)[C@@H](NC(=O)c4ccccc4)c4ccccc4)C(C)=C1C3(C)C)[C@]1(OC(C)=O)CO[C@@H]1C[C@@H]2O [Paclitaxel] | 0.03 |  |  |  | 
CN(C)CCC=C1c2ccccc2CCc2ccccc21 [Amitriptyline] | 1 | 950 |  |  | 
O=c1[nH]cc(F)c(=O)[nH]1 [Fluorouracil] | 100 | 4600 |  |  | 
O=C1c2c(O)ccc(O)c2C(=O)c2c(NCCNCCO)ccc(NCCNCCO)c21 [Mitoxantrone] | 1 |  |  |  | 
O=C(O)C(O)C(O)C(=O)O (centres unmarked) [Tartaric Acid] | 100 |  |  |  | 
OC[C@@H](O)[C@@H](O)[C@H](O)[C@@H](O)CO [Sorbitol] | 100 | 3900 |  |  | 
c1ccc2[nH]c(-c3cscn3)nc2c1 [Thiabendazole] | 100 | 30800 |  |  | 
CC(=O)[C@]1(O)Cc2c(O)c3c(c(O)c2[C@@H](O[C@H]2C[C@H](N)[C@H](O)[C@H](C)O2)C1)C(=O)c1ccccc1C3=O [Idarubicin] | 0.1 | 120 |  |  | 
COc1ccc(C(=O)Nc2ccccc2CCC2CCCCN2C)cc1 (centres unmarked) [Encainide] | 100 | 710 |  |  | 
CCN(CC)CCCC(C)Nc1ccnc2cc(Cl)ccc12 (centres unmarked) [Chloroquine] | 3 | 960 |  |  | 
Phenylphenol |  | 90 |  | 100 | 
O=C1NCCN1CCN1CCC(c2cn(-c3ccc(F)cc3)c3ccc(Cl)cc23)CC1 [Sertindole] | 0.3 | 320 |  |  | 
CCN(CC)CCNC(=O)c1c(C)[nH]c(/C=C2\C(=O)Nc3ccc(F)cc32)c1C [Sunitinib] | 1 | 250 |  |  | 
CC1(C)S[C@@H]2[C@H](NC(=O)[C@H](N)c3ccc(O)cc3)C(=O)N2[C@H]1C(=O)O [Amoxicillin] | 100 | 17000 |  |  | 
CN1CCN(C2=Nc3cc(Cl)ccc3Nc3ccccc32)CC1 [Clozapine] | 10 | 950 |  |  | 
O=C1CN2Cc3c(ccc(Cl)c3Cl)N=C2N1 [Anagrelide] | 30 | 60 |  |  | 
CSc1ccc2c(c1)N(CCC1CCCCN1C)c1ccccc1S2 (centres unmarked) [Thioridazine] | 1 |  |  |  | 
CCN1/C(=C/C=C/C=C/c2sc3ccccc3[n+]2CC)Sc2ccccc21 [Dithiazanine Iodide] | 0.1 | 100 |  |  | 
CS(=O)(=O)c1ccc(C2=C(c3ccccc3)C(=O)OC2)cc1 [Rofecoxib] | 100 | 1700 |  |  | 
CC(C)C[C@H](N)C(=O)O [Leucine] | 100 |  |  |  | 
Cc1ccc(NC(=O)c2ccc(CN3CCN(C)CC3)cc2)cc1Nc1nccc(-c2cccnc2)n1 [Imatinib] | 3 |  |  |  | 
O=C(O)c1ccccc1 [Benzoic Acid] | 100 | 36000 |  |  | 
Cc1occc(=O)c1O [Maltol] | 100 | 30000 |  |  | 

Compound | MAVE (Maximum Acceptable Viability Exposure) ([1]; human) [µM] | Cmax Total ([2]; therapeutic total Cmax) [nM] | Functional Model Prediction [3] | MAVE (Maximum Acceptable Viability Exposure) [1, 4] [µM] | Cmax Total ([2]; in vivo) [nM]
CCCCCCc1ccc(O)cc1O [Hexylresorcinol] | 30 | 1000 |  |  | 
CS(=O)(=O)CCNCc1ccc(-c2ccc3ncnc(Nc4ccc(OCc5cccc(F)c5)c(Cl)c4)c3c2)o1 [Lapatinib] | 10 | 4180 |  |  | 
CN(CCOc1ccc(NS(C)(=O)=O)cc1)CCc1ccc(NS(C)(=O)=O)cc1 [Dofetilide] | 100 | 8 |  |  | 
CCN[C@@H](C)Cc1cccc(C(F)(F)F)c1 [Dexfenfluramine] | 30 |  |  |  | 400
COc1cc(N)c(Cl)cc1C(=O)NC1CCN(CCCOc2ccc(F)cc2)CC1OC (centres unmarked) [Cisapride] | 100 | 180 |  |  | 
Nc1nc2c(ncn2COCCO)c(=O)[nH]1 [Acyclovir] | 100 | 6700 |  |  | 
C[C@@H]1C/C=C/C=C/C=C/C=C/[C@H](O[C@@H]2O[C@H](C)[C@@H](O)[C@H](N)[C@@H]2O)C[C@@H]2O[C@](O)(C[C@@H](O)C[C@H]3O[C@@H]3/C=C/C(=O)O1)C[C@H](O)[C@H]2C(=O)O [Natamycin] | 30 |  |  |  | 
COc1cccc2c1C(=O)c1c(O)c3c(c(O)c1C2=O)C[C@@](O)(C(=O)CO)C[C@@H]3O[C@H]1C[C@H](N)[C@H](O)[C@H](C)O1 [Doxorubicin] | 0.1 | 15300 |  |  | 
CC(C)(C)c1ccc(C(O)CCCN2CCC(C(O)(c3ccccc3)c3ccccc3)CC2)cc1 (centres unmarked) [Terfenadine] | 3 | 300 |  |  | 
COc1ccc(CCN2CCC(Nc3nc4ccccc4n3Cc3ccc(F)cc3)CC2)cc1 [Astemizole] | 3 | 8 |  |  | 
CN(C)CCN(Cc1cccs1)c1ccccn1 [Methapyrilene] | 100 | 15300 |  |  | 
COc1cccc2c1C(=O)c1c(O)c3c(c(O)c1C2=O)C[C@@](O)(C(C)=O)C[C@@H]3O[C@H]1C[C@H](N)[C@H](O)[C@H](C)O1 [Daunorubicin] | 0.1 | 89000 |  |  | 
CCCOC(=O)c1cc(O)c(O)c(O)c1 [Propyl Gallate] | 30 | 3000 |  |  | 
C#Cc1cccc(Nc2ncnc3cc(OCCOC)c(OCCOC)cc23)c1 [Erlotinib] | 3 | 3800 |  |  | 
Arsenic Trioxide |  | 12100 |  | 10 | 
CC(C)NCC(O)c1ccc(O)c(O)c1 (centres unmarked) [Isoproterenol] | 100 | 10 |  |  | 
C[C@@H]1[C@H](O)[C@@H](C)/C=C/C=C/C=C/C=C/C=C/C=C/C=C/[C@H](O[C@@H]2O[C@H](C)[C@@H](O)[C@H](N)[C@@H]2O)C[C@@H]2O[C@](O)(C[C@@H](O)C[C@@H](O)[C@H](O)CC[C@@H](O)C[C@@H](O)CC(=O)O[C@H]1C)C[C@H](O)[C@H]2C(=O)O [Amphotericin B] |  | 89800 |  | 3 | 
CNC(=C[N+](=O)[O-])NCCSCc1ccc(CN(C)C)o1 [Ranitidine] | 100 | 1700 |  |  | 
CNC(=O)c1cc(Oc2ccc(NC(=O)Nc3ccc(Cl)c(C(F)(F)F)c3)cc2)ccn1 [Sorafenib] | 3 |  |  |  | 
O=C(O)CCCC[C@@H]1SC[C@@H]2NC(=O)N[C@@H]21 [Biotin] | 100 | 10 |  |  | 
CC(C)C[C@H](NC(=O)[C@H](Cc1ccccc1)NC(=O)c1cnccn1)B(O)O [Bortezomib] | 0.1 | 300 |  |  | 
COc1cc2c(Nc3ccc(Br)cc3F)ncnc2cc1OCC1CCN(C)CC1 [Vandetanib] | 1 | 3300 |  |  | 
Cc1nc(Nc2ncc(C(=O)Nc3c(C)cccc3Cl)s2)cc(N2CCN(CCO)CC2)n1 [Dasatinib] | 10 | 720 |  |  | 
O=C(O)CC(O)(CC(=O)O)C(=O)O [Citric Acid] | 100 | 128000 |  |  | 
Cc1onc(-c2ccccc2)c1-c1ccc(S(N)(=O)=O)cc1 [Valdecoxib] | 100 | 510 |  |  | 
CCCCCNC(=N)N/N=C/c1c[nH]c2ccc(OC)cc12 [Tegaserod] | 3 | 80 |  |  | 
O=C1O[C@H]([C@@H](O)CO)C(O)=C1O [Ascorbic Acid] | 100 | 36000 |  |  | 
